Measurements taken from patent publication EP1019392B1, “TRICYCLIC AMIDES USEFUL FOR INHIBITION OF G-PROTEIN FUNCTION AND FOR TREATMENT OF PROLIFERATIVE DISEASES” (SCHERING CORPORATION, priority 1995, dated 1997).
pIC50: −log10 of the molar value. Where two headings read alike, the source gives them in different places.

Legend:
[1] = tested on: Ras-CVLS processing in COS monkey kidney cells; experiment: COS cell assay: inhibition of Ras-CVLS processing (Western blot); assay type: cell-based
From the text: • 1. In vitro enzyme assays: Inhibition of farnesyl protein transferase and geranylgeranyl protein transferase. Both farnesyl protein transferase (FPT) and geranylgeranyl protein transferase (GGPT) I were partially purified from rat brain by ammonium sulfate fractionation followed by Q-Sepharose (Pharmacia, Inc.) anion exchange chromatography essentially as described by Yokoyama et al (Yokoyama, K., et al., (1991), A protein geranylgeranyltransferase from bovine brain: Implications for protein prenylation specificity, Proc. Natl. Acad. Sci USA 88: 5302-5306, the disclosure of which is incorporated herein by reference thereto). Human farnesyl protein transferase was also expressed in E. coli, using cDNA clones encoding both the a and b subunits. The methods used were similar to those published (Omer, C. et al., (1993), Characterization of recombinant human farnesyl protein transferase: Cloning, expression, farnesyl diphosphate binding, and functional homology with yeast prenyl-protein transferases, Biochemistry 32:5167-5176). Human farnesyl protein transferase was partially-purified from the soluble protein fraction of E. coli as described above. […] Two forms of val^12-Ha-Ras protein were prepared as substrates for these enzymes, differing in their carboxy terminal sequence. One form terminated in cysteine-valine-leucine-serine (Ras-CVLS) the other in cystein-valine-leucine-leucine (Ras-CVLL). Ras-CVLS is a substrate for the farnesyl protein transferase while Ras-CVLL is a substrate for geranylgeranyl protein transferase I. The cDNAs encoding these proteins were constructed so that the proteins contain an amino-terminal extension of 6 histidine residues. Both proteins were expressed in Escherichia coli and purified using metal chelate affinity chromatography. The radiolabelled isoprenyl pyrophosphate substrates, [^3H]farnesyl pyrophosphate and [^3H]geranylgeranyl pyrophosphate, were purchased from DuPont/New England Nuclear. Several methods for measuring farnesyl protein transferase activity have been described (Reiss et al 1990, Cell 62: 81; Schaber et al 1990, J. Biol. Chem. 265: 14701; Manne et al 1990, PNAS 87: 7541; and Barbacid & Manne 1993, U.S. Patent No. 5,185,248). […] The reaction was allowed to proceed for 30 minutes at room temperature and then stopped with 0.5 ml of 4% sodium dodecyl sulfate (SDS) followed by 0.5 ml of cold 30% TCA. Samples were allowed to sit on ice for 45 minutes and precipitated Ras protein was then collected on GF/C filter paper mats using a Brandel cell harvester. Filter mats were washed once with 6% TCA, 2% SDS and radioactivity was measured in a Wallac 1204 Betaplate BS liquid scintillation counter. Percent inhibition was calculated relative to the DMSO vehicle control. The geranylgeranyl protein transferase I assay was essentially identical to the farnesyl protein transferase assay described above, with two exceptions: [^3H]geranylgeranylpyrophosphate replaced farnesyl pyrophosphate as the isoprenoid donor and Ras-CVLL was the protein acceptor. […] Cell-Based Assay: Transient expression of val^12-Ha-Ras-CVLS and val^12-Ha-Ras-CVLL in COS monkey kidney cells: Effect of farnesyl protein transferase inhibitors on Ras processing and on disordered cell growth induced by transforming Ras. COS monkey kidney cells were transfected by electroporation with the plasmid pSV-SPORT (Gibco/BRL) containing a cDNA insert encoding either Ras-CVLS or Ras-CVLL, leading to transient overexpression of a Ras substrate for either farnesyl protein transferase or geranylgeranyl protein transferase I, respectively (see above). Following electroporation, cells were plated into 6-well tissue culture dishes containing 1.5 ml of Dulbecco's-modified Eagle's media (GIBCO, Inc.) supplemented with 10% fetal calf serum and the appropriate farnesyl protein transferase inhibitors. After 24 hours, media was removed and fresh media containing the appropriate drugs was re-added.

[2] = tested on: Normal human HEPM fibroblasts; experiment: Cell Mat Assay, normal cell mat; assay type: cell-based; conditions: normal monolayer
[3] = target: T1, geranylgeranyl protein transferase (GGPT) I (Rattus norvegicus, UniProt P53610+Q04631); experiment: In vitro enzyme assay: inhibition of geranylgeranyl protein transferase I (Ras-CVLL as acceptor); assay type: biochemical; conditions: Table 2; Ras-CVLL as isoprenoid acceptor
T1 construct: geranylgeranyl protein transferase (GGPT) I were partially purified from rat brain; from tissue; host or cells: rat brain
From the text: • 1. In vitro enzyme assays: Inhibition of farnesyl protein transferase and geranylgeranyl protein transferase. Both farnesyl protein transferase (FPT) and geranylgeranyl protein transferase (GGPT) I were partially purified from rat brain by ammonium sulfate fractionation followed by Q-Sepharose (Pharmacia, Inc.) anion exchange chromatography essentially as described by Yokoyama et al (Yokoyama, K., et al., (1991), A protein geranylgeranyltransferase from bovine brain: Implications for protein prenylation specificity, Proc. Natl. Acad. Sci USA 88: 5302-5306, the disclosure of which is incorporated herein by reference thereto). Human farnesyl protein transferase was also expressed in E. coli, using cDNA clones encoding both the a and b subunits. The methods used were similar to those published (Omer, C. et al., (1993), Characterization of recombinant human farnesyl protein transferase: Cloning, expression, farnesyl diphosphate binding, and functional homology with yeast prenyl-protein transferases, Biochemistry 32:5167-5176). Human farnesyl protein transferase was partially-purified from the soluble protein fraction of E. coli as described above. The tricyclic farnesyl protein transferase inhibitors disclosed herein inhibited both human and rat enzyme with similar potencies. Two forms of val^12-Ha-Ras protein were prepared as substrates for these enzymes, differing in their carboxy terminal sequence. One form terminated in cysteine-valine-leucine-serine (Ras-CVLS) the other in cystein-valine-leucine-leucine (Ras-CVLL). Ras-CVLS is a substrate for the farnesyl protein transferase while Ras-CVLL is a substrate for geranylgeranyl protein transferase I. The cDNAs encoding these proteins were constructed so that the proteins contain an amino-terminal extension of 6 histidine residues. Both proteins were expressed in Escherichia coli and purified using metal chelate affinity chromatography. The radiolabelled isoprenyl pyrophosphate substrates, [^3H]farnesyl pyrophosphate and [^3H]geranylgeranyl pyrophosphate, were purchased from DuPont/New England Nuclear. Several methods for measuring farnesyl protein transferase activity have been described (Reiss et al 1990, Cell 62: 81; Schaber et al 1990, J. Biol. Chem. 265: 14701; Manne et al 1990, PNAS 87: 7541; and Barbacid & Manne 1993, U.S. Patent No. 5,185,248). The activity was assayed by measuring the transfer of [^3H]farnesyl from [^3H]farnesyl pyrophosphate to Ras-CVLS using conditions similar to those described by Reiss et al. 1990 (Cell 62: 81) The reaction mixture contained 40 mM Hepes, pH 7.5; 20 mM magnesium chloride; 5 mM dithiothreitol; 0.25 µM [^3H]farnesyl pyrophosphate; […] Q-Sepharose-purified farnesyl protein transferase; the indicated concentration of tricyclic compound or dimethylsulfoxide (DMSO) vehicle control (5% DMSO final); and […] Ras-CVLS in a total volume of […]. The reaction was allowed to proceed for 30 minutes at room temperature and then stopped with 0.5 ml of 4% sodium dodecyl sulfate (SDS) followed by 0.5 ml of cold 30% TCA. Samples were allowed to sit on ice for 45 minutes and precipitated Ras protein was then collected on GF/C filter paper mats using a Brandel cell harvester. Filter mats were washed once with 6% TCA, 2% SDS and radioactivity was measured in a Wallac 1204 Betaplate BS liquid scintillation counter. Percent inhibition was calculated relative to the DMSO vehicle control. The geranylgeranyl protein transferase I assay was essentially identical to the farnesyl protein transferase assay described above, with two exceptions: [^3H]geranylgeranylpyrophosphate replaced farnesyl pyrophosphate as the isoprenoid donor and Ras-CVLL was the protein acceptor. This is similar to the assay reported by Casey et al (Casey, P.J., et al., (1991), Enzymatic modification of proteins with a geranylgeranyl isoprenoid, Proc. Natl. Acad. Sci, USA 88: 8631-8635, the disclosure of which is incorporated herein by reference thereto). • 2. […]

[4] = tested on: T24-BAG4 human bladder carcinoma cells expressing an activated H-ras gene; experiment: Cell Mat Assay, T24 tumor cells; assay type: cell-based; conditions: read-out: Tumor (T-24) IC50
[5] = tested on: DLD-1-BAG human colon carcinoma cells expressing as activated K-ras gene; experiment: Cell Mat Assay, DLD-1 tumor cells; assay type: cell-based; conditions: Mat assay
[6] = tested on: DLD-1 (human colon carcinoma cells, ATCC # CCL 221); experiment: In Vivo Anti-Tumor Studies, subcutaneous DLD-1 tumors; parameters: species or system athymic nu/nu female mice; conditions: Mus musculus, DLD-1, po, QID, 4 weeks, range over the listed compounds; for inhibition in vivo at 10 mg/kg: 10 mg/kg p.o.; for inhibition in vivo at 50 mg/kg: 50 mg/kg p.o.
From the text: Tumor cells (5 X 10^5 to 8 X 10^6) of DLD-1 (human colon carcinoma cells, ATCC # CCL 221) are innolculated subcutaneously into the flank of 5-6 week o;d athymic nu/nu female mice.

[7] = tested on: SW620-BAG human colon carcinoma cells expressing an activated K-ras gene; experiment: Cell Mat Assay, SW620 tumor cells; assay type: cell-based; conditions: Mat assay
[8] = target: T2, farnesyl protein transferase (FPT) (Rattus norvegicus, UniProt Q02293+Q04631); experiment: In vitro enzyme assay: inhibition of farnesyl protein transferase (transfer of [3H]farnesyl to Ras-CVLS); assay type: biochemical
T2 construct: were partially purified from rat brain by ammonium sulfate fractionation followed by Q-Sepharose; from tissue; host or cells: rat brain
Experimental: • 1. In vitro enzyme assays: Inhibition of farnesyl protein transferase and geranylgeranyl protein transferase. […] Human farnesyl protein transferase was also expressed in E. coli, using cDNA clones encoding both the a and b subunits. […] Human farnesyl protein transferase was partially-purified from the soluble protein fraction of E. coli as described above. […] Two forms of val^12-Ha-Ras protein were prepared as substrates for these enzymes, differing in their carboxy terminal sequence. One form terminated in cysteine-valine-leucine-serine (Ras-CVLS) the other in cystein-valine-leucine-leucine (Ras-CVLL). Ras-CVLS is a substrate for the farnesyl protein transferase while Ras-CVLL is a substrate for geranylgeranyl protein transferase I. The cDNAs encoding these proteins were constructed so that the proteins contain an amino-terminal extension of 6 histidine residues. Both proteins were expressed in Escherichia coli and purified using metal chelate affinity chromatography. The radiolabelled isoprenyl pyrophosphate substrates, [^3H]farnesyl pyrophosphate and [^3H]geranylgeranyl pyrophosphate, were purchased from DuPont/New England Nuclear. […] The reaction was allowed to proceed for 30 minutes at room temperature and then stopped with 0.5 ml of 4% sodium dodecyl sulfate (SDS) followed by 0.5 ml of cold 30% TCA. Samples were allowed to sit on ice for 45 minutes and precipitated Ras protein was then collected on GF/C filter paper mats using a Brandel cell harvester. […] Percent inhibition was calculated relative to the DMSO vehicle control. The geranylgeranyl protein transferase I assay was essentially identical to the farnesyl protein transferase assay described above, with two exceptions: [^3H]geranylgeranylpyrophosphate replaced farnesyl pyrophosphate as the isoprenoid donor and Ras-CVLL was the protein acceptor. […] Cell-Based Assay: Transient expression of val^12-Ha-Ras-CVLS and val^12-Ha-Ras-CVLL in COS monkey kidney cells: Effect of farnesyl protein transferase inhibitors on Ras processing and on disordered cell growth induced by transforming Ras. COS monkey kidney cells were transfected by electroporation with the plasmid pSV-SPORT (Gibco/BRL) containing a cDNA insert encoding either Ras-CVLS or Ras-CVLL, leading to transient overexpression of a Ras substrate for either farnesyl protein transferase or geranylgeranyl protein transferase I, respectively (see above). Following electroporation, cells were plated into 6-well tissue culture dishes containing 1.5 ml of Dulbecco's-modified Eagle's media (GIBCO, Inc.) supplemented with 10% fetal calf serum and the appropriate farnesyl protein transferase inhibitors. After 24 hours, media was removed and fresh media containing the appropriate drugs was re-added. 48 hours after electroporation cells were examined under the microscope to monitor disordered cell growth induced by transforming Ras. Cells expressing transforming Ras become more rounded and refractile and overgrow the monolayer, reminiscent of the transformed phenotype. Cells were then photographed, washed twice with 1 ml of cold phosphate-buffered saline (PBS) and removed from the dish by scraping with a rubber policeman into 1 ml of a buffer containing 25 mM Tris, pH 8.0; 1 mM ethylenediamine tetraacetic acid; 1 mM phenylmethylsulfonyl fluoride; […] leupeptin; and 0.1 mM pepstatin. Cells were lysed by homogenization and cell debris was removed by centrifugation at 2000 x g for 10 min. Cellular protein was precipitated by addition of ice-cold trichloroacetic acid and redissolved in […] of SDS-electrophoresis sample buffer. […] Proteins resolved on the gels were electroblotted onto nitrocellulose membranes for immunodetection. […] After washing, membranes were incubated for one hour at room temperature with a 1:5000 dilution of secondary antibody, rabbit anti-rat IgG conjugated to horseradish peroxidase, in PBS containing 1% fetal calf serum.

[9] = Table 2, comparison with GGPT, read-out: ENZYME INHIBITION FPT IC50

pIC50 ([4]; Homo sapiens) | pIC50 ([8]; Table 1, partially purified rat brain FPT, Ras-CVLS, read-out: FPT IC50) | SMILES | pIC50 [1] | pIC50 [2] | pIC50 [3] | pIC50 [4] | pIC50 [5] | inhibition in vivo at 10 mg/kg [6] [%] | inhibition in vivo at 50 mg/kg [6] [%] | pIC50 [7] | pIC50 ([2]; Homo sapiens, Fibroblast) | pIC50 [8, 9] | pIC50 ([8]; FPT IC50, Table 1, partially purified rat brain FPT, Ras-CVLS)
 |  | NC(=O)N1CCC(CC(=O)N2CCC(=C3c4ncc(Br)cc4CCc4cc(Cl)cc(Br)c43)CC2)CC1 (single isomer, unassigned) [Example 8B] | 6.55 | < 4.60 | < 4.22 | > 5.80 | > 5.80 | 7 to 50 | 35.4 to 83 | 5.51 |  |  | 
5.51 | 7.34 | NC(=O)N1CCC(CC(=O)N2CCC(C3c4ccc(Cl)cc4CCc4cc(Br)cnc43)CC2)CC1 (stereo not drawn) [Example 4] |  |  | < 4.45 |  |  | 7 to 50 | 35.4 to 83 |  | < 4.60 | 7.34 | 
 |  | O=C(Cc1cc[n+]([O-])cc1)N1CCC(=C2c3ncc(Br)cc3CCc3cc(Cl)cc(Br)c32)CC1 (single isomer, unassigned) [Example 7B] |  |  | < 4.18 |  |  |  |  |  |  | > 8.52 | > 8.52
